# Results taken from patent US5364944A, “Substituted benzoylbenzene-, biphenyl- and 2-oxazole- alkanoic acid compounds” (American Home Products Corporation, priority 1993, dated 1994).
# Where a name gives a salt, the structure may show the parent alone.
# Tests used:
# LTB4 = assay: Reverse passive Arthus pleurisy assay, inflammatory mediator release: LTB4; type: in vivo, rat (male Lewis); conditions: for % Inhibition of LTB4 Synthesis: 25 mg/kg p.o., 3 hours before challenge
# Method: (§1) The compounds of the invention are further tested in the reverse passive Arthus pleurisy assay to evaluate their effectiveness in inflammatory mediator release and/or the fluid and cellular phases of an inflammatory response.
# (§2) This assay is carried out as follows:
# A reverse passive Arthus reaction is induced in the pleural cavity of male Lewis rats (150-200 g; fasted overnight prior to use) by the intravenous administration of bovine serum albumin (BSA; 4 mg/0.2 ml) followed 30 minutes later by the injection of rabbit anti-BSA (1 mg/0.2 ml; lyophilized IgG fraction; Organon Teknika, West Chester, Pa.) into the right pleural space under halothane anesthesia. […] Animals are sacrificed at either the time of peak eicosanoid production (i.e. 5 minutes after anti-BSA for immunoreactive TxB2 10 minutes for immunoreactive LTB4, 20 minutes for immunoreactive LTC4) or at the time of peak neutrophil infiltration (4 hours after anti-BSA) by CO2 inhalation. The pleural cavity is then exposed, the fluid exudate removed by gentle vacuum aspiration and the volume of exudate is recorded. For the determination of cellular infiltration, the pleural cavity is rinsed with 3 ml of 0.1% EDTA in sterile saline, and the recovered wash is pooled with the exudate. Cell number is determined on a model ZBI Coulter counter. For determination of eicosanoid production, undiluted pleural exudate is microfuged and the supernatant is extracted with ethanol (8-10 times volume). Extracts are either stored at -20° C., or are evaporated to dryness under a stream of N2 and reconstituted in radioimmunoassay (RIA) buffer.
# Eicosanoids are quantitated by RIA according to the procedure specified by the RIA kit manufacturer (Advanced Magnetics, Cambridge, Mass.). Briefly, 100 μl of ^3 H-labeled eicosanoid and 100 μl of specific antibody are sequentially added to 100 μl of extracted pleural exudate in BGG -phosphate buffer which contains 0.01 M phosphate, 0.1% bovine gamma globulin and 0.1% sodium azide at pH 7.0. Antibody-bound eicosanoid is separated from unbound eicosanoid by the addition of 750 μl of dextran (0.4%)-coated charcoal (0.4% Norit A) containing 0.1% sodium azide. The mixture is centrifuged at 2000 RPM at 5° C. for 15 minutes to pellet the charcoal and adsorbed unbound eicosanoid. Antibody-bound labeled eicosanoid is quantitated by counting in a liquid scintillation counter, and is correlated to concentration by a standard curve.
# (§3) Inflammatory cells are expressed as 10^6 cells/ml, pleural exudate is expressed as ml of fluid, and the amount of eicosanoids in the pleural cavity is expressed as ng/ml of exudate. Mean ±S.E.M. is determined for each group. Percent inhibition (% I) of cell number, exudate volume and eicosanoid production is calculated for vehicle-treated control groups, and the responses in drug-treated rats are then expressed as the mean % I of the control. […] Exp. Ther., 96, 99-113 (1949).
# [1] = test system: 5-lipoxygenase in human whole blood; assay: Inhibition of 5-lipoxygenase in human whole blood (LTB4); type: cell-based
# Method: The assay of this Example measures the ability of the compounds tested to inhibit 5-lipoxygenase in human whole blood.
# as §2
# Blood is obtained in 50-100 ml quantities from male donors. White blood cell counts and differentials are made. Two ml of blood are placed in a 15 ml polypropylene test tube. Compounds are solubilized in dimethylsulfoxide and diluted 1:10 in 10% bovine serum albumin in phosphate buffered saline, pH 7.4 resulting in a final dimethylsulfoxide concentration of 0.1% in the blood. Then, compounds are added to the blood in a shaking water bath at 37° C. for 10 minutes prior to the addition of 30 μM calcium ionophore (A23187; Sigma). After ionophore administration, whole blood samples are mixed and incubated for 20 minutes at […] in a shaking water bath. Incubation is terminated by placing samples in an ice bath and immediately adding ethylene glycol-bis-(β-aminoethyl ether)-N,N,N',N'-tetraacetic acid (10 mM). Samples are mixed and centrifuged at 1200×g for 15 minutes at 4° C. Preparation of samples for evaluation by RIA or ELISA is carried out by the following protocol. Plasma is removed from sample tubes, placed in 15 ml polypropylene test tubes containing 8 ml methanol, and then vortexed to precipitate protein. Samples are stored at -70° C. overnight. The next day, samples are centrifuged at 200×g for 15 minutes at 4° C. to pellet the precipitate. Samples are dried in a Savant speed vac concentrator, reconstituted to original volume with ice cold RIA or ELISA buffer, and stored at -70° C. until assayed. The assay for eicosanoids (LTB4, TxB2, and PGE2) is performed as described by the manufacturer of the [^3 H]-RIA kit or ELISA kit (LTB4 -Amersham, TxB2 and PGE2 - Caymen Chemical).
# The total eicosanoid level in 2 ml of blood is calculated and reported as ng/10^6 neutrophils. […] Drug effects are expressed as percent change from control values.
# Compounds tested in vitro are solubilized in dimethylsulfoxide and diluted 1:10 in 10% bovine serum albumin in phosphate buffer saline resulting in a final dimethylsulfoxide concentration of 0.1% in the blood.
# [2] = biological target: T1, LTD4-induced contractions of isolated guinea pig trachea (Cavia porcellus, UniProt Q2NNR5); assay: In vitro isolated guinea pig trachea assay, LTD4 antagonist activity; design: species or system guinea pig (male Hartley); conditions: 1 × 10^-5 M
# T1 construct: isolated guinea pig trachea; from tissue; host or cells: tracheal rings of male Hartley guinea pigs
# T1 sequence (Q2NNR5 1-340): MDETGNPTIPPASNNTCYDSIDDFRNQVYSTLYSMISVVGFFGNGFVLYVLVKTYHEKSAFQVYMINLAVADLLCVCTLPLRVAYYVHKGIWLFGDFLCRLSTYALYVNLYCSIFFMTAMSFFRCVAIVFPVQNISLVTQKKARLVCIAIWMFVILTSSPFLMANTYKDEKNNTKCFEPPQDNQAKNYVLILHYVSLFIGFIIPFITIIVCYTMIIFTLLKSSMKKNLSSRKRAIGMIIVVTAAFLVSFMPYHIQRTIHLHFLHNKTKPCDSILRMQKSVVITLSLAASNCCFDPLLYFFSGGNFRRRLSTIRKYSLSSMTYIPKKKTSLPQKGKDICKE
# Method: The LTD4 antagonist activity of the compounds of the invention is assessed in the in vitro isolated guinea pig trachea assay. This assay is carried out as follows: Male Hartley guinea pigs (350-400 g) are euthanized by a blow to the head, the neck is opened and the trachea removed. The trachea is maintained in aerated physiological salt solution, cleared of connective tissue and fat and cut into rings approximately 2 mm in width (usually containing two cartilaginous segments per ring). Two pieces of silk suture are then passed through the lumen of the tracheal ting and are tied around the cartilage, one on each side of the trachealis muscle. The tracheal ring is suspended between a glass hook and a force displacement transducer in a 10 ml organ bath for measurement of isometric tension. […] The tracheal rings are maintained at 2 g resting tension and equilibrated for 45 minutes (with frequent washing and readjustment of resting tension). The tracheal […] contracted by the addition of carbachol (3×10^-6 M), to determine tissue responsiveness and establish a reference contraction. On attainment of a stable level of contraction (approximately 30 minutes), the tissues are washed several times until baseline tension has been restored and the re-equilibrated for 30 minutes. The tissues are then incubated for 45 minutes with a test antiagonist (either 1×10^-6 M or 1×10^-5 M) or 10 μl of an appropriate solvent control (control, nontreated). One tissue in each group serves as the control. Twenty minutes prior to the construction of the LTD4 cumulative concentration-response curve, L-[…]×10^-2 M final bath concentration) is added to inhibit bioconversion of LTD4 to LTE4. Only one LTD4 concentration-response curve is constructed in each tissue. All responses to LTD4 in an individual tissue are measured as a percentage of the reference contraction of that tissue to carbachol. LTD4 antagonist activity is determined by comparison of the concentration response curves of LTD4 in the presence and absence of antagonist. Assessment of the relative rightward shift of the antagonist treated curve relative to the solvent (control) treated tissue is calculated as a concentration ratio (Eq. A) and used in subsequent calculations to derive an antagonist pKB value (Eqs. B and C). […] If a compound is found to be active and/or depress the maximal response to LTD4, then a range of concentrations of the test compound should be used generating multiple concentration ratios which would then be used to perform a Schild analysis, and determination of a pA2 value where appropriate.
# [3] = test system: fluid and cellular phases of an inflammatory response; assay: Reverse passive Arthus pleurisy assay, pleural inflammation (fluid exudation, cellular influx); type: in vivo, rat (male Lewis)
# Method: as §1, §2
# A reverse passive Arthus reaction is induced in the pleural cavity of male Lewis rats (150-200 g; fasted overnight prior to use) by the intravenous administration of bovine serum albumin (BSA; 4 mg/0.2 ml) followed 30 minutes later by the injection of rabbit anti-BSA (1 mg/0.2 ml; lyophilized IgG fraction; Organon Teknika, West Chester, Pa.) into the right pleural space under halothane anesthesia. Drugs or vehicle (0.5% Tween-80) control are administered orally in a volume of 1 ml/100 g body weight at 1 hour prior to the anti-BSA. Animals are sacrificed at either the time of peak eicosanoid production (i.e. 5 minutes after anti-BSA for immunoreactive TxB2 10 minutes for immunoreactive LTB4, 20 minutes for immunoreactive LTC4) or at the time of peak neutrophil infiltration (4 hours after anti-BSA) by CO2 inhalation. The pleural cavity is then exposed, the fluid exudate removed by gentle vacuum aspiration and the volume of exudate is recorded. For the determination of cellular infiltration, the pleural cavity is rinsed with 3 ml of 0.1% EDTA in sterile saline, and the recovered wash is pooled with the exudate. Cell number is determined on a model ZBI Coulter counter. For determination of eicosanoid production, undiluted pleural exudate is microfuged and the supernatant is extracted with ethanol (8-10 times volume). Extracts are either stored at -20° C., or are evaporated to dryness under a stream of N2 and reconstituted in radioimmunoassay (RIA) buffer.
# as §3
compound,measurement,setting,value
"O=C(O)Cc1ccc(-c2ccc(OCc3ccc4ccccc4n3)cc2)c(F)c1 [Example 2, 2-Fluoro-4'-(2-quinolinylmethoxy)-[1,1'-biphenyl]-4-acetic acid]",% Inhibition of LTB4 Synthesis,LTB4,34%
same,% Inhibition of LTB4,[1]; at 25 μM,5%
same,Kb,[2],0.631 µM
COc1ccc2c(c1)c(CC(=O)O)c(C)n2C(=O)c1ccc(Cl)cc1 [Indomethacin],% Inh LTB4,"LTB4; 4 mg/kg p.o., standard drugs",12%
same,% Inh Cellular Influx,"[3]; 8 mg/kg p.o., standard drugs",19%
same,ED30,"[3]; Rattus norvegicus, po, read-out: ED30 Fluid Exudation",2.5 mg/kg
"CC(C)N(O)C(=O)Cc1ccc(-c2ccc(OCc3csc(-c4ccccc4)n3)cc2)cc1 [Example 20, N-Hydroxy-N-isopropyl-4'-[(2-phenylthiazol-4yl)methoxy][1,1'-biphenyl]-4-acetamide]",% Inhibition of LTB4 Synthesis,LTB4,19%
same,% Inhibition of LTB4,[1]; at 25 μM,93%
same,pKB,[2],< 5.2
C[C@@H]1C[C@H]2[C@@H]3CCC4=CC(=O)C=C[C@]4(C)[C@@]3(F)[C@@H](O)C[C@]2(C)[C@@]1(O)C(=O)CO [Dexamethasone],ED30 Fluid Exudation,"[3]; p.o., pleural inflammation, standard drugs",0.05 mg/kg
"CC(C(=O)N(C)O)c1ccc(-c2ccc(OCc3csc(-c4ccccc4)n3)cc2)cc1 (stereo not drawn) [Example 22, N-Hydroxy-N,α-dimethyl-4'-[(2-phenylthiazol-4-yl)methoxy][1,1'-biphenyl]-4-acetamide,sodium salt, hydrate]",% Inhibition of LTB4 Synthesis,"LTB4; sodium salt, hydrate",37%
same,% Inhibition of LTB4,"[1]; at 25 μM, sodium salt, hydrate",74%
same,IC50,"[1]; sodium salt, hydrate",9 µM
same,Kb,[2],5.01 µM
"CC(c1ccc(-c2ccc(OCc3nc4ccccc4s3)cc2)cc1)N(O)C(N)=O (centres unmarked) [Example 33, 1-{1-[4'-(Benzothiazol-2-ylmethoxy)biphenyl-4-yl]-ethyl}-1-hydroxy-urea]",% Inhibition of LTB4 Synthesis,LTB4,2%
same,% Inhibition of LTB4,[1]; at 10 μM,10%
same,Kb,[2],> 10 µM
